Laboratory results taken from patent US20210198613A1, “MICROELECTRODE ARRAY AND USES THEREOF” (AXOSIM, INC., priority 2018, published 2021).
Like-named read-outs stand apart in the source and are kept apart here.

How the values were obtained:
[1] = system: embryonic dorsal root ganglion (DRG) explants; conditions: cited from earlier work
[2] = system: neuronal cell death in vitro; conditions: cited from earlier work
[3] = system: embryonic dorsal root ganglion (DRG) explants; test: Nerve-On-A-Chip compound action potential (CAP) electrophysiology; type: cell-based, rat; conditions: 40 μM, 48-hr application
[4] = system: embryonic dorsal root ganglion (DRG) explants; conditions: 40 μM, 48-hr application

NC1=N[C@H](O)[C@H]2[C@H]3O[C@]4(O)O[C@@H]([C@@H](O)[C@@]2(N1)[C@@H]4O)[C@]3(O)CO [tetrodotoxin]
effect on CAP population responses [1]: reversibly abolished

[CH3][Hg][Cl] [Methylmercury]
In Vitro Neurotoxic dose ([2]; literature value, used as acute 48-hr dose of the planned pilot study): 10 mM

CCCCCC [n-hexane]
In Vitro Neurotoxic dose [2]: 765 mM

C=C[C@@]1(C)CC(=O)[C@]2(O)[C@@]3(C)[C@@H](O)CCC(C)(C)[C@@H]3[C@H](O)[C@H](OC(C)=O)[C@@]2(C)O1 [forskolin]
reduction in CAP amplitude [3]: ~50%
reduction in conduction velocity [3]: ~50%
dysmyelination by histology [4]: strong evidence of dysmyelination
increase in G-ratio (thinning of myelin sheath) ([4]; histology, data not shown): 50%
reduction in % myelinated axons ([4]; histology, data not shown): 70%
